Data reported in publication PMC11325506 (ACS Omega, 2024).
pIC50: −log10 of the molar value.

Assays:
Type in all cases: cell-based
[1] = tested on: Mycobacterium tuberculosis, strain H37Ra; experiment: Antimycobacterial activity against M. tuberculosis H37Ra (luminescence, dose-response); settings: for pIC50: Mycobacterium tuberculosis, 168 h, H37Ra lux, luminescence at day 7, top concentration 64 μM; for SI (selectivity index): calculated with the formula CC50/IC50 (MRC-5 cytotoxicity / H37Ra); for activity against Mtb H37Ra (in words): SAR discussion
Mycobacterium abscessus = experiment: microbe, parasite or virus in culture; settings: Mycobacteroides abscessus, 72 h, read-out: IC50 against M. abscessus
[2] = In vitro cytotoxicity, resazurin assay; settings: human, MRC-5 fibroblast cells (ATCC CCL-171), 3 days exposure
Description: In vitro cytotoxicity was evaluated on the MRC-5 Homo sapiens […] fibroblast cell line (ATCC CCL-171). The MRC-5 cells were cultured in 75 cm^2 sterile Dulbecco’s modified Eagle’s medium (DMEM) supplemented with 10% heat-inactivated fetal calf serum in a 5% CO2 atmosphere at 37 °C. When a semiconfluent layer of cells was formed, the cells were trypsinized, washed with sterile PBS, seeded into a transparent, flat-bottomed 96-well plate at a density of 4 × 10^4 cells per well and left for recovery at 37 °C, 5% CO2 for at least 24 h. For each compound, a 2-fold serial dilution was made in complete DMEM with final concentrations ranging from 128 μM to 0.5 μM. Subsequently, the MRC-5 cells were exposed to the compounds by adding 100 μL of the serial dilutions to the wells. Test plates were incubated for 3 days in an atmosphere of 5% CO2 at 37 °C. For the resazurin assay, the cells were washed 2 times with 200 μL PBS, and 100 μL resazurin working solution was added per well. Subsequently, the plates were incubated at 37 °C, 5% CO2 for 3 h. To monitor the viable cell number after compound exposure, each well was analyzed using a microplate fluorometer equipped with a 560 nm excitation/590 nm emission filter set.

SMILES | pIC50 [1] | SI (selectivity index) [1] | further results
O=c1c(NCc2ccccn2)c(-c2ccc(OC(F)(F)F)cc2)c1=O [Compound 6d, 3-((Pyridin-2-ylmethyl)amino)-4-(4-(trifluoromethoxy)phenyl)cyclobut-3-ene-1,2-dione] | 4.86 | > 4.6 | 
COc1nc2ccc(Br)cc2cc1[C@@H](c1ccccc1)[C@@](O)(CCN(C)C)c1cccc2ccccc12 [Bedaquiline, reference compound] | 8.00 |  | 
O=c1c(NCc2ccccn2)c(-c2ccsc2)c1=O [Compound 6y, 3-((Pyridin-2-ylmethyl)amino)-4-(thiophen-3-yl)cyclobut-3-ene-1,2-dione] | < 4.19 |  | 
O=c1c(NCc2ccccn2)c(-c2ccc(F)c(F)c2)c1=O [Compound 6n, 3-(3,4-Difluorophenyl)-4-((pyridin-2-ylmethyl)amino)cyclobut-3-ene-1,2-dione] | 5.61 | > 26.0 | 
COc1c(N2C[C@@H]3CCCN[C@@H]3C2)c(F)cc2c(=O)c(C(=O)O)cn(C3CC3)c12 [Moxifloxacin] |  |  | pIC50 (Mycobacterium abscessus): 5.76
O=c1c(NCc2ccccn2)c(-c2cccc3ccccc23)c1=O [Compound 6s, 3-(Naphthalen-1-yl)-4-((pyridin-2-ylmethyl)amino)cyclobut-3-ene-1,2-dione] | < 4.19 |  | 
O=c1c(NCc2ccccn2)c(-c2ccoc2)c1=O [Compound 6x, 3-(Furan-3-yl)-4-((pyridin-2-ylmethyl)amino)cyclobut-3-ene-1,2-dione] | 4.54 | > 2.2 | 
O=c1c(NCc2ccccn2)c(-c2ccc(OCc3ccccc3)cc2)c1=O [Compound 6i, 3-(4-(Benzyloxy)phenyl)-4-((pyridin-2-ylmethyl)amino)cyclobut-3-ene-1,2-dione] | < 4.19 |  | 
O=c1c(NCc2ccccn2)c(-c2ccc(O)cc2)c1=O [Compound 6c, 3-(4-Hydroxyphenyl)-4-((pyridin-2-ylmethyl)amino)cyclobut-3-ene-1,2-dione] | 4.66 | > 2.9 | 
COCCOc1ccc(-c2c(NCc3ccccn3)c(=O)c2=O)cc1 [Compound 6g, 3-(4-(2-Methoxyethoxy)phenyl)-4-((pyridin-2-ylmethyl)amino)cyclobut-3-ene-1,2-dione] | 5.06 | > 7.4 | 
COc1ccc(-c2c(NCc3ccccn3)c(=O)c2=O)cc1Cl [Compound 6l, 3-(3-Chloro-4-methoxyphenyl)-4-((pyridin-2-ylmethyl)amino)cyclobut-3-ene-1,2-dione] | 5.82 | > 42.4 | 
CCCOc1ccc(-c2c(NCc3ccccn3)c(=O)c2=O)c(F)c1F [Compound 6p, 3-(2,3-Difluoro-4-propoxyphenyl)-4-((pyridin-2-ylmethyl)amino)cyclobut-3-ene-1,2-dione] | < 4.19 |  | activity against Mtb H37Ra (in words) [1]: completely inactive
CCOc1c(C)cc(-c2c(NCc3ccccn3)c(=O)c2=O)cc1C [Compound 6r, 3-(4-Ethoxy-3,5-dimethylphenyl)-4-((pyridin-2-ylmethyl)amino)cyclobut-3-ene-1,2-dione] | 4.87 | > 4.7 | 
COc1ccc(-c2c(NCc3ccccn3)c(=O)c2=O)c(F)c1F [Compound 6o, 3-(2,3-Difluoro-4-methoxyphenyl)-4-((pyridin-2-ylmethyl)amino)cyclobut-3-ene-1,2-dione] | < 4.19 |  | 
Cc1ccc(-c2c(NCc3ccccn3)c(=O)c2=O)s1 [Compound 6z, 3-(5-Methylthiophen-2-yl)-4-((pyridin-2-ylmethyl)amino)cyclobut-3-ene-1,2-dione] | 5.53 | > 21.5 | 
O=c1c(NCc2ccccn2)c(-c2ccc3c(c2)OCCO3)c1=O [Compound 6v, 3-(2,3-Dihydrobenzo[b][1,4]dioxin-6-yl)-4-((pyridin-2-ylmethyl)amino)cyclobut-3-ene-1,2-dione] | 5.47 | > 19.0 | 
Cc1ccc(-c2c(NCc3ccccn3)c(=O)c2=O)cc1 [Compound 6a, 3-((Pyridin-2-ylmethyl)amino)-4-(p-tolyl)cyclobut-3-ene-1,2-dione] | 5.70 | > 31.8 | 
O=c1c(NCc2ccccn2)c(-c2ccc(OCc3ccc(F)cc3)cc2)c1=O [Compound 6j, 3-(4-((4-Fluorobenzyl)oxy)phenyl)-4-((pyridin-2-ylmethyl)amino)cyclobut-3-ene-1,2-dione] | < 4.19 |  | 
CC/C(=C(\c1ccccc1)c1ccc(OCCN(C)C)cc1)c1ccccc1 [Tamoxifen] |  |  | IC50 at 3 days [2]: 12.3 µM
O=c1c(NCc2ccccn2)c(-c2ccc3c(c2)OCO3)c1=O [Compound 6u, 3-(Benzo[d][1,3]dioxol-5-yl)-4-((pyridin-2-ylmethyl)amino)cyclobut-3-ene-1,2-dione] | 4.70 | > 3.2 | 
O=c1c(NCc2ccccn2)c(-c2ccc(Br)cc2)c1=O [Compound 6b, 3-(4-Bromophenyl)-4-((pyridin-2-ylmethyl)amino)cyclobut-3-ene-1,2-dione] | 5.46 | > 18.3 | 
O=c1c(NCc2ccccn2)c(-c2ccc(Cl)cc2C(F)(F)F)c1=O [Compound 6m, 3-(4-Chloro-2-(trifluoromethyl)phenyl)-4-((pyridin-2-ylmethyl)amino)cyclobut-3-ene-1,2-dione] | < 4.19 |  | 
O=c1c(NCc2ccccn2)c(-c2ccc(Oc3ccccc3)cc2)c1=O [Compound 6h, 3-(4-Phenoxyphenyl)-4-((pyridin-2-ylmethyl)amino)cyclobut-3-ene-1,2-dione] | < 4.19 |  | 
CCCCOc1ccc(-c2c(NCc3ccccn3)c(=O)c2=O)c(F)c1F [Compound 6q, 3-(4-Butoxy-2,3-difluorophenyl)-4-((pyridin-2-ylmethyl)amino)cyclobut-3-ene-1,2-dione] | < 4.19 |  | activity against Mtb H37Ra (in words) [1]: completely inactive
O=c1c(NCc2ccccn2)c(-c2ccc(OCc3ccccc3)c(Cl)c2)c1=O [Compound 6k, 3-(4-(Benzyloxy)-3-chlorophenyl)-4-((pyridin-2-ylmethyl)amino)cyclobut-3-ene-1,2-dione] | < 4.19 |  | 
CC(C)(C)Oc1ccc(-c2c(NCc3ccccn3)c(=O)c2=O)cc1 [Compound 6f, 3-(4-(tert-Butoxy)phenyl)-4-((pyridin-2-ylmethyl)amino)cyclobut-3-ene-1,2-dione] | 5.33 | > 13.7 | 
COc1ccc(-c2c(NCc3ccccn3)c(=O)c2=O)c2ccccc12 [Compound 6t, 3-(4-Methoxynaphthalen-1-yl)-4-((pyridin-2-ylmethyl)amino)cyclobut-3-ene-1,2-dione] | < 4.19 |  | 
CSc1ccc(-c2c(NCc3ccccn3)c(=O)c2=O)cc1 [Compound 6e, 3-(4-(Methylthio)phenyl)-4-((pyridin-2-ylmethyl)amino)cyclobut-3-ene-1,2-dione] | 5.34 | > 14.0 | 
CCOc1ccc2cc(-c3c(NCc4ccccn4)c(=O)c3=O)ccc2c1 [Compound 6w, 3-(6-Ethoxynaphthalen-2-yl)-4-((pyridin-2-ylmethyl)amino)cyclobut-3-ene-1,2-dione] | < 4.19 |  | activity against Mtb H37Ra (in words) [1]: completely inactive
